Reference: patent US10006918B2, “Fluorogenic hydrazine-substituted compounds” (LIFE TECHNOLOGIES CORPORATION, priority 2008, dated 2018)

Test: Aldehyde reactivity of compounds: fluorogenic reaction with acetaldehyde in phosphate buffer, excitation/emission spectra
Type: physicochemical
Experimental: Spectra were taken at pH 6 in a 50 mM phosphate buffer solution.
Spectra were taken at pH 6 in 50 mM phosphate buffer solution.
A sample of Compound 2 (5 mg, 0.0126 mmol) is dissolved in 10 ml of pH 6.5, 50 mmol phosphate buffer solution. To this non-fluorescent solution, is added 25 ul, 1 mol solution of acetaldehyde in water at room temperature. […] The reaction is complete in 10 minutes to give a stable […] analog. Its absorption max is at 548 nm and emission max is at 580 nm (see FIGS. 3A and B).

[1] = after reaction with acetaldehyde, pH 6.5 phosphate buffer
[2] = aldehyde-reacted, pH 6, 50 mM phosphate buffer, FIG. 3B

## NN=c1ccc2c(-c3ccccc3S(=O)(=O)O)c3ccc(NN)cc3oc-2c1 [Compound 2, 2-(6-hydrazinyl-3-hydrazono-3H-xanthen-9-yl)benzenesulfonate]
25 ul 1 mol acetaldehyde in water, room temperature, pH 6.5 phosphate buffer, within a few minutes
  fluorescence of solution after addition of acetaldehyde: highly fluorescent
acetaldehyde, pH 6, 50 mM phosphate buffer, FIG. 1
  change of fluorescence upon reaction with an aldehyde (emission spectra before and after contact with acetaldehyde): significant fluorescent increase
[1]
  absorption max of acetaldehyde reaction product: 548 nm
  emission max of acetaldehyde reaction product: 580 nm
[2]
  emission spectra maximum, aldehyde-reacted compound: 581 nm
  excitation maximum, aldehyde-reacted compound: 548 nm
Room temperature, pH 6.5, 50 mmol phosphate buffer
  time to complete reaction with acetaldehyde: 10 min
un-reacted dye, FIG. 3A
  excitation maximum, un-reacted compound: 519 nm
